Laboratory results from patent US6737383B1, “Herbicidal oxadiazolidines” (priority 1999, dated 2004).

What was measured:
[1] = test system: surinam grass; test: Test B pre/postemergence surinam grass; type: in vivo, Brachiaria decumbens
In short: (§1)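 Response is a visual 0-to-10 score relative to untreated plants, where 0 means no effect and 10 means complete control, taken twelve to sixteen days after application. Treatments went onto soil at planting and onto foliage of 1- to 4-leaf plants, using a surfactant-containing non-phytotoxic solvent.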

[2] = test system: smallflower flatsedge; test: Test B flood test smallflower flatsedge; type: in vivo, Cyperus difformis
In short: (§2)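 Read-out is a visual response score from 0 (no effect) to 10 (complete control), assigned by comparison with untreated controls. Treatment was applied at the 2-leaf stage, and plants stayed in the greenhouse for twelve to sixteen days before scoring.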

[3] = test system: crabgrass; test: Test B pre/postemergence crabgrass; type: in vivo, Digitaria sanguinalis
In short: as §1

[4] = test system: morningglory; test: Test B pre/postemergence morningglory; type: in vivo, Ipomoea hederacea
In short: as §1

[5] = test system: rape; test: Test B pre/postemergence rape; type: in vivo, Brassica napus
In short: as §1

[6] = test system: blackgrass; test: Test B pre/postemergence blackgrass; type: in vivo, Alopecurus myosuroides
In short: as §1

[7] = test system: giant foxtail; test: Test B pre/postemergence giant foxtail; type: in vivo, Setaria faberii
In short: as §1

[8] = test system: purple nutsedge; test: Test B pre/postemergence purple nutsedge; type: in vivo, Cyperus rotundus
In short: as §1

[9] = test system: pigweed; test: Test B pre/postemergence pigweed; type: in vivo, Amaranthus retroflexus
In short: as §1

[10] = test system: sugar beet; test: Test B pre/postemergence sugar beet; type: in vivo, Beta vulgaris
In short: as §1

[11] = test system: rice; test: Test B flood test rice; type: in vivo, Oryza sativa
In short: as §2

[12] = test system: wild oat; test: Test B pre/postemergence wild oat; type: in vivo, Avena fatua
In short: as §1

[13] = test system: corn; test: Test B pre/postemergence corn; type: in vivo, Zea mays
In short: as §1

[14] = test system: duck salad; test: Test B flood test duck salad; type: in vivo, Heteranthera limosa
In short: as §2

[15] = test system: bamyardgrass; test: Test B flood test barnyardgrass; type: in vivo, Echinochloa crus-galli
In short: as §2

[16] = test system: wheat; test: Test B pre/postemergence wheat; type: in vivo, Triticum aestivum
In short: as §1

[17] = test system: cocklebur; test: Test B pre/postemergence cocklebur; type: in vivo, Xanthium strumarium
In short: as §1

[18] = test system: bedstraw; test: Test B pre/postemergence bedstraw; type: in vivo, Galium aparine; details: Preemergence
In short: as §1

[19] = test system: velvetleaf; test: Test B pre/postemergence velvetleaf; type: in vivo, Abutilon theophrasti
In short: as §1

[20] = test system: soybean; test: Test B pre/postemergence soybean; type: in vivo, Glycine max
In short: as §1

[21] = Postemergence, Rate 62 g/ha, scale of 0 to 10, 0 is no effect, 10 is complete control
[22] = Postemergence, Rate 125 g/ha, scale of 0 to 10 where 0 is no effect and 10 is complete control
[23] = Postemergence, Rate 250 g/ha, scale of 0 to 10, 0 is no effect, 10 is complete control
[24] = Postemergence, Rate 500 g/ha, scale of 0 to 10 where 0 is no effect and 10 is complete control
[25] = Preemergence, Rate 62 g/ha, scale 0 to 10 (0 no effect, 10 complete control)
[26] = Preemergence, Rate 125 g/ha, scale of 0 to 10 where 0 is no effect and 10 is complete control
[27] = Preemergence, Rate 500 g/ha, scale of 0 to 10 where 0 is no effect and 10 is complete control
[28] = Rate 62 g/ha, flood test species, Pre-emergence, visual evaluation after twelve to sixteen days
[29] = Rate 125 g/ha, under heading Pre-emergence, flood test species, visual evaluation after twelve to sixteen days
[30] = Rate 250 g/ha, Pre-emergence (flood test species), scale 0 to 10, 0 is no effect, 10 is complete control
[31] = Rate 500 g/ha, Pre-emergence section of Table B, 0 to 10 scale (0 no effect, 10 complete control)

## CC(=O)OCC(CCl)n1c(=O)on(C(=O)N(c2ccc(F)cc2)C(C)C)c1=O (centres unmarked) [Compound 596]
[1]; [21]
  B. signalgrass plant response rating: 0
[1]; [22]
  Plant response rating, B. signalgrass: 0
[1]; [23]
  B. signalgrass plant response rating: 0
[1]; [24]
  Plant response rating, B. signalgrass: 0
[1]; [25]
  B. signalgrass plant response rating: 0
[1]; [26]
  B. signalgrass plant response rating: 0
[1]; Preemergence, Rate 250 g/ha
  B. signalgrass plant response rating (0 to 10 scale, 0 is no effect, 10 is complete control): 0
[1]; [27]
  B. signalgrass plant response rating: 0
[2]; [28]
  Plant response rating, S. Flatsedge (0 to 10 scale, 0 is no effect, 10 is complete control): 0
[2]; [29]
  S. Flatsedge plant response rating (0 to 10 scale, 0 is no effect, 10 is complete control): 0
[2]; [30]
  S. Flatsedge plant response rating: 0
[2]; [31]
  S. Flatsedge plant response rating: 0
[3]; [21]
  Crabgrass plant response rating: 0
[3]; [22]
  Plant response rating, Crabgrass: 0
[3]; [23]
  Crabgrass plant response rating: 0
[3]; [24]
  Plant response rating, Crabgrass: 2
[3]; [25]
  Crabgrass plant response rating: 0
[3]; [26]
  Crabgrass plant response rating: 0
[3]; [27]
  Plant response rating, Crabgrass: 6
[4]; [21]
  Morningglory plant response rating: 0
[4]; [22]
  Plant response rating, Morningglory: 0
[4]; [23]
  Morningglory plant response rating: 0
[4]; [24]
  Plant response rating, Morningglory: 2
[4]; [25]
  Morningglory plant response rating: 0
[4]; [26]
  Morningglory plant response rating: 0
[4]; [27]
  Plant response rating, Morningglory: 0
[5]; [21]
  Rape plant response rating: 0
[5]; [22]
  Plant response rating, Rape: 0
[5]; [23]
  Rape plant response rating: 0
[5]; [24]
  Plant response rating, Rape: 0
[5]; [25]
  Rape plant response rating: 0
[5]; [26]
  Rape plant response rating: 0
[5]; [27]
  Plant response rating, Rape: 0
[6]; [21]
  Blackgrass plant response rating: 0
[6]; [22]
  Plant response rating, Blackgrass: 0
[6]; [23]
  Blackgrass plant response rating: 0
[6]; [24]
  Plant response rating, Blackgrass: 0
[6]; [25]
  Blackgrass plant response rating: 0
[6]; [26]
  Blackgrass plant response rating: 0
[6]; Preemergence, Rate 250 g/ha
  Blackgrass plant response rating (0 to 10 scale): 0
[6]; [27]
  Blackgrass plant response rating: 0
[7]; [21]
  Giant foxtail plant response rating: 0
[7]; [22]
  Plant response rating, Giant foxtail: 0
[7]; [23]
  Giant foxtail plant response rating: 0
[7]; [24]
  Plant response rating, Giant foxtail: 3
[7]; [25]
  Giant foxtail plant response rating: 0
[7]; [26]
  Giant foxtail plant response rating: 0
[7]; [27]
  Plant response rating, Giant foxtail: 4
[8]; [21]
  Nutsedge plant response rating: 0
[8]; [22]
  Plant response rating, Nutsedge: 0
[8]; [24]
  Plant response rating, Nutsedge: 0
[8]; [25]
  Nutsedge plant response rating: 0
[8]; [26]
  Nutsedge plant response rating: 0
[8]; [27]
  Plant response rating, Nutsedge: 0
[9]; [22]
  Plant response rating, Redroot pigweed: 0
[9]; [23]
  Redroot pigweed plant response rating: 0
[9]; [24]
  Plant response rating, Redroot pigweed: 0
[9]; [25]
  Redroot pigweed plant response rating: 0
[9]; [26]
  Redroot pigweed plant response rating: 0
[9]; [27]
  Plant response rating, Redroot pigweed: 0
[10]; [22]
  Plant response rating, Sugarbeets: 0
[10]; [23]
  Sugarbeets plant response rating: 0
[10]; [24]
  Plant response rating, Sugarbeets: 0
[10]; [25]
  Sugarbeets plant response rating: 0
[10]; [26]
  Sugarbeets plant response rating: 0
[10]; [27]
  Plant response rating, Sugarbeets: 0
[11]; [28]
  Plant response rating, Rice (0 to 10 scale, 0 is no effect, 10 is complete control): 0
[11]; [29]
  Rice plant response rating (0 to 10 scale, 0 is no effect, 10 is complete control): 0
[11]; [30]
  Rice plant response rating: 0
[11]; [31]
  Rice plant response rating: 0
[12]; [22]
  Plant response rating, Wild oats: 0
[12]; [23]
  Wild oats plant response rating: 0
[12]; [24]
  Plant response rating, Wild oats: 0
[12]; [25]
  Wild oats plant response rating: 0
[12]; [26]
  Wild oats plant response rating: 0
[12]; [27]
  Plant response rating, Wild oats: 0
[13]; [21]
  Corn plant response rating: 0
[13]; [22]
  Plant response rating, Corn: 0
[13]; [23]
  Corn plant response rating: 0
[13]; [24]
  Plant response rating, Corn: 0
[13]; [25]
  Corn plant response rating: 0
[13]; [26]
  Corn plant response rating: 0
[13]; Preemergence, Rate 250 g/ha
  Corn plant response rating (0 to 10 scale): 0
[13]; [27]
  Plant response rating, Corn: 0
[14]; [28]
  Plant response rating, Ducksalad (0 to 10 scale, 0 is no effect, 10 is complete control): 0
[14]; [29]
  Ducksalad plant response rating (0 to 10 scale, 0 is no effect, 10 is complete control): 0
[14]; [30]
  Ducksalad plant response rating: 0
[14]; [31]
  Ducksalad plant response rating: 0
[15]; [28]
  Plant response rating, Barnyardgrass (0 to 10 scale, 0 is no effect, 10 is complete control): 0
[15]; [29]
  Barnyardgrass plant response rating (0 to 10 scale, 0 is no effect, 10 is complete control): 0
[15]; [30]
  Barnyardgrass plant response rating: 0
[15]; [31]
  Barnyardgrass plant response rating: 0
[16]; [22]
  Plant response rating, Wheat: 0
[16]; [23]
  Wheat plant response rating: 0
[16]; [24]
  Plant response rating, Wheat: 0
[16]; [25]
  Wheat plant response rating: 0
[16]; [26]
  Wheat plant response rating: 0
[16]; [27]
  Plant response rating, Wheat: 0
[17]; [21]
  Cocklebur plant response rating: 0
[17]; [22]
  Plant response rating, Cocklebur: 0
[17]; [23]
  Cocklebur plant response rating: 0
[17]; [24]
  Plant response rating, Cocklebur: 0
[17]; [25]
  Cocklebur plant response rating: 0
[17]; [26]
  Cocklebur plant response rating: 0
[17]; Preemergence, Rate 250 g/ha
  Cocklebur plant response rating (0 to 10 scale): 0
[17]; [27]
  Plant response rating, Cocklebur: 0
[18]; Rate 62 g/ha, scale 0 to 10 (0 no effect, 10 complete control)
  Bedstraw plant response rating: 0
[18]; Rate 125 g/ha, scale of 0 to 10 where 0 is no effect and 10 is complete control
  Bedstraw plant response rating: 0
[18]; Rate 250 g/ha
  Bedstraw plant response rating (0 to 10 scale): 0
[18]; Rate 500 g/ha, scale of 0 to 10 where 0 is no effect and 10 is complete control
  Bedstraw plant response rating: 0
[19]; [22]
  Plant response rating, Velvetleaf: 0
[19]; [23]
  Velvetleaf plant response rating: 0
[19]; [24]
  Plant response rating, Velvetleaf: 0
[19]; [25]
  Velvetleaf plant response rating: 0
[19]; [26]
  Velvetleaf plant response rating: 0
[19]; [27]
  Plant response rating, Velvetleaf: 0
[20]; [22]
  Plant response rating, Soybean: 2
[20]; [23]
  Soybean plant response rating: 2
[20]; [24]
  Plant response rating, Soybean: 3
[20]; [25]
  Soybean plant response rating: 0
[20]; [26]
  Soybean plant response rating: 0
[20]; [27]
  Plant response rating, Soybean: 0
